Assay results taken from PMC9814781, “Structure-based design of a dual-warhead covalent inhibitor of FGFR4” (Communications Chemistry, 2022).

Columns and labels:
parental Ba/F3 cells = assay: Ba/F3 cell viability assay; type: cell-based; conditions: Mus musculus, BaF3, 72 h, CCK-8
PIM1 = PIM1 (Homo sapiens, UniProt P11309); assay: Kinase selectivity profiling
p38δ = p38δ (Homo sapiens, UniProt O15264); assay: Kinase selectivity profiling
BMX = BMX (Homo sapiens, UniProt P51813); assay: Kinase selectivity profiling
PAK2 = PAK2 (Homo sapiens, UniProt Q13177); assay: Kinase selectivity profiling
Pkca = Pkca (Homo sapiens, UniProt P17252); assay: Kinase selectivity profiling
p70S6K = p70S6K (Homo sapiens, UniProt P23443); assay: Kinase selectivity profiling
CDK2/CycE1 = CDK2/CycE1 (Homo sapiens, UniProt P24941); assay: Kinase selectivity profiling
SGK3 = SGK3 (Homo sapiens, UniProt Q96BR1); assay: Kinase selectivity profiling
Erk2 = Erk2 (Homo sapiens, UniProt P28482); assay: Kinase selectivity profiling
FLT4 (VEGFR3) = FLT4 (VEGFR3) (Homo sapiens, UniProt P35916); assay: Kinase selectivity profiling
JAK2 = JAK2 (Homo sapiens, UniProt O60674); assay: Kinase selectivity profiling
FGFR2 [1] = biological target: T1, FGFR2 (Homo sapiens, UniProt P21802); assay: Kinase selectivity profiling
PKD2 = PKD2 (Homo sapiens, UniProt Q9BZL6); assay: Kinase selectivity profiling
CDK1/CycA2 = CDK1/CycA2 (Homo sapiens, UniProt P06493); assay: Kinase selectivity profiling
EPHB1 = EPHB1 (Homo sapiens, UniProt P54762); assay: Kinase selectivity profiling
EPHB4 = EPHB4 (Homo sapiens, UniProt P54760); assay: Kinase selectivity profiling
FYNb = FYNb (Homo sapiens, UniProt P06241); assay: Kinase selectivity profiling
CDK2/CycA2 = CDK2/CycA2 (Homo sapiens, UniProt P24941); assay: Kinase selectivity profiling
JNK1 = JNK1 (Homo sapiens, UniProt P45983); assay: Kinase selectivity profiling
HIPK2 = HIPK2 (Homo sapiens, UniProt Q9H2X6); assay: Kinase selectivity profiling
BTK = BTK (Homo sapiens, UniProt Q06187); assay: Kinase selectivity profiling
YES = YES (Homo sapiens, UniProt P07947); assay: Kinase selectivity profiling
MST2 = MST2 (Homo sapiens, UniProt Q13188); assay: Kinase selectivity profiling
YSK1 = YSK1 (Homo sapiens, UniProt O00506); assay: Kinase selectivity profiling
CDK6/CycD1 = CDK6/CycD1 (Homo sapiens, UniProt Q00534); assay: Kinase selectivity profiling
DYRK3 = DYRK3 (Homo sapiens, UniProt O43781); assay: Kinase selectivity profiling
FGFR2 [2] = biological target: T1, FGFR2; assay: Kinase inhibition assay (ADP-Glo); type: biochemical; parameters: FGFR2 (residues 453–770); 6xHis + PreScission site (N, cleaved yes); made in house; host or cells: Escherichia coli Rosseta
Description: Wild-type FGFRs and mutant FGFRs were prepared as previously described[25]–[27]. In brief, the kinase domains of human FGFR1 (residues 456–765), FGFR2 (residues 453–770), FGFR3 (residues 450–758), and FGFR4 (residues 445–753) were cloned into a modified pET28a expression vector and then transfected into Escherichia coli Rosseta cells. The N-terminal of the recombinant proteins were contained a 6xHis tag followed by a PreScission cleavage site for FGFR1, FGFR2, FGFR3, and FGFR4. Site-directed mutagenesis of FGFR4 was generated according to the ClonExpress II One Step Cloning Kit (Vazyme) using the pET28a-FGFR4 plasmid as the template. These mutants were confirmed by DNA sequencing (Tsingke, Changsha, China). For crystallization experiments, the wild-type FGFR4 plasmid was co-expressed with untagged YOPH to obtain non-phosphorylated proteins. The proteins were first purified by Ni-NTA affinity chromatography. […]
All kinase inhibition assays were performed with optimized kinase assay buffer consisting of 40 mM Tris-HCl pH 7.5, 20 mM MgCl2, 20 mM NaCl, 0.1 mg/mL BSA, 1 mM TCEP, and 4% DMSO. […] Fluorescence was measured on a multimode plate reader (Perkin-Elmer) using a chemiluminescence program after the addition of the detection reagent. IC50 values were determined using a three-parameter log [Inhibitor] versus response model in GraphPad Prism software.
Target sequence in this assay (P21802 453-770): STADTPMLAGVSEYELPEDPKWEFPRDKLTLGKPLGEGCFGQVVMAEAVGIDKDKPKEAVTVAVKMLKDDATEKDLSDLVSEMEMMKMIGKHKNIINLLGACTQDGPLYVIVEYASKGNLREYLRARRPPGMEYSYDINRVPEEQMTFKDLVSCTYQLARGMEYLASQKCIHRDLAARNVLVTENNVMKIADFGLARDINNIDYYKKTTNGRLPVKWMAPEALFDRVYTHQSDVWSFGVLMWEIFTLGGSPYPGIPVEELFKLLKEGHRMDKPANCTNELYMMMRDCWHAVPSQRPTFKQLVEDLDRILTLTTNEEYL

p38δ, sequence (O15264 whole entry): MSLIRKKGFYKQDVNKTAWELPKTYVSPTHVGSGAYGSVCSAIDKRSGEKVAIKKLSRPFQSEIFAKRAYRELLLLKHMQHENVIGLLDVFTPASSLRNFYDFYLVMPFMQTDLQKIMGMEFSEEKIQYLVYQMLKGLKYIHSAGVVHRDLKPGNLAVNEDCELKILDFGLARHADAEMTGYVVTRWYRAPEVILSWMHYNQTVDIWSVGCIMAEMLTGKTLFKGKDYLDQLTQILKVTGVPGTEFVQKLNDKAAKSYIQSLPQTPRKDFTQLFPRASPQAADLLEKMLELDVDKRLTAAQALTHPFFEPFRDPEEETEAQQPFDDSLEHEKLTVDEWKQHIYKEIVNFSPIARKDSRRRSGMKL
Erk2, sequence (P28482 whole entry): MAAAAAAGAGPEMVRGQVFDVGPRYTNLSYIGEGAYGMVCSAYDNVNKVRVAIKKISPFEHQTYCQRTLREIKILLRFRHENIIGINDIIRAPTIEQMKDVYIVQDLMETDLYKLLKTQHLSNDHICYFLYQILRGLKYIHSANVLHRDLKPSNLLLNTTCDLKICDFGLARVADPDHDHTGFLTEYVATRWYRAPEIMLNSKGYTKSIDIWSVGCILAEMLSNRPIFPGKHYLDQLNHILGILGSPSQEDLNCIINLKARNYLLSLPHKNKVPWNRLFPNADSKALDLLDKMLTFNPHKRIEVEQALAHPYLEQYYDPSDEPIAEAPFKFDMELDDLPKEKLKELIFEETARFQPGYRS
HIPK2, sequence (Q9H2X6 whole entry): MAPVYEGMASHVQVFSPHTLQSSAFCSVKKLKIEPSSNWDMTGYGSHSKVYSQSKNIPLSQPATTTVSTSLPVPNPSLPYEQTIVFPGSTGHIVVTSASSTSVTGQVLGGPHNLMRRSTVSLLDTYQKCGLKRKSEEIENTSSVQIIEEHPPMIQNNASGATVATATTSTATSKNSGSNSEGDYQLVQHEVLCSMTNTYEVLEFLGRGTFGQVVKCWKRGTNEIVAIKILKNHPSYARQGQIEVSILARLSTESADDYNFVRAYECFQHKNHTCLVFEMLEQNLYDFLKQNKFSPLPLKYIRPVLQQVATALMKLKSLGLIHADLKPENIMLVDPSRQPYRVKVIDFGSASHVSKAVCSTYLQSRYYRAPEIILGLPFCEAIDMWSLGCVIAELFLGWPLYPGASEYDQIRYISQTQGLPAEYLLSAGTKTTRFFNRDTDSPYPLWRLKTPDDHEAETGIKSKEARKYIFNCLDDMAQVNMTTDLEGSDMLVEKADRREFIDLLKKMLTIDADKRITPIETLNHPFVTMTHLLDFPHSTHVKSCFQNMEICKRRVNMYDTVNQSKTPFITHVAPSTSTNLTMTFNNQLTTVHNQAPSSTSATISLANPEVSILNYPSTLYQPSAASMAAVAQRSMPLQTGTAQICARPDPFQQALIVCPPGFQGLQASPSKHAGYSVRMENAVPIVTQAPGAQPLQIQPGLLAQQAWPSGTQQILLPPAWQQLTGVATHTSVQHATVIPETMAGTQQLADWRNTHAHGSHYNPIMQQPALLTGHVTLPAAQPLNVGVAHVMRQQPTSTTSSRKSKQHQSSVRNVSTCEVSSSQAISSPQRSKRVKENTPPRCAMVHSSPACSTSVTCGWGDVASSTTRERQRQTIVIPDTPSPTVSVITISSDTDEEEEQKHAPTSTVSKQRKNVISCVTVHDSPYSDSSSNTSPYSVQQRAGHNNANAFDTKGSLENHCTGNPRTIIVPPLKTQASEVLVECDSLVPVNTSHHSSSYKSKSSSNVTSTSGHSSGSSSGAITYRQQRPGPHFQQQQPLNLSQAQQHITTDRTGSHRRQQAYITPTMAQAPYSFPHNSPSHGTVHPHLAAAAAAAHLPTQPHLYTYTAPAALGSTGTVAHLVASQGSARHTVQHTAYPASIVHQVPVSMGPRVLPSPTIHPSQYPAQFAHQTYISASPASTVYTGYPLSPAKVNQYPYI
BTK, sequence (Q06187 whole entry): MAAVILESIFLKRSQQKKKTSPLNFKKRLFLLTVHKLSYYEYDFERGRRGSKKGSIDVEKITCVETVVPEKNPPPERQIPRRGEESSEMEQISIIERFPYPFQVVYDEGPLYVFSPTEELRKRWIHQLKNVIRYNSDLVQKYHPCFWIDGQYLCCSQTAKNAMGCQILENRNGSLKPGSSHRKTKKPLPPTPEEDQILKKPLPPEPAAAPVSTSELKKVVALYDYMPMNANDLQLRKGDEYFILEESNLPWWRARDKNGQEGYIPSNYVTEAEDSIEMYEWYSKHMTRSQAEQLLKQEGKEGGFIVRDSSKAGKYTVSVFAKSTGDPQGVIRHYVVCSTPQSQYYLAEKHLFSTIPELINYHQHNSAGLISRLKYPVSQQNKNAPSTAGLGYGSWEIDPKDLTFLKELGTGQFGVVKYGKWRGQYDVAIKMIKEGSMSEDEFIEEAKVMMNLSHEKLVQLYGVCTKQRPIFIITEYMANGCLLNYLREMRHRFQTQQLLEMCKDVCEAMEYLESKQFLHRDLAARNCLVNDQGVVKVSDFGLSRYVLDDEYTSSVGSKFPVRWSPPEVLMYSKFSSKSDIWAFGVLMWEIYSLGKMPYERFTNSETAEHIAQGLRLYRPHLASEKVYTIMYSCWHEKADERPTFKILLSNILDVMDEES
MST2, sequence (Q13188 whole entry): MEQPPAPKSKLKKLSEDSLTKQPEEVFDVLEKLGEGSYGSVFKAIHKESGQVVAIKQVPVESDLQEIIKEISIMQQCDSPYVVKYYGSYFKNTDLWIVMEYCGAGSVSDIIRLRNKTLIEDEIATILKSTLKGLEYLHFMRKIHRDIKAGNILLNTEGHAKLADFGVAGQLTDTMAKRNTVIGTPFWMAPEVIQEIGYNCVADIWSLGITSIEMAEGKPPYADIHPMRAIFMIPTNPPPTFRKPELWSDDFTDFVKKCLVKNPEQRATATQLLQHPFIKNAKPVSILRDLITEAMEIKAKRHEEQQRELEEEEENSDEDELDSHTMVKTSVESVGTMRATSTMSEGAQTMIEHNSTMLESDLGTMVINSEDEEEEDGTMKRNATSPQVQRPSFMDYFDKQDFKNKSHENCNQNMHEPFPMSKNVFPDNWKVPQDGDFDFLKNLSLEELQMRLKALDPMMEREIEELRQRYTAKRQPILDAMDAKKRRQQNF
CDK6/CycD1, sequence (Q00534 whole entry): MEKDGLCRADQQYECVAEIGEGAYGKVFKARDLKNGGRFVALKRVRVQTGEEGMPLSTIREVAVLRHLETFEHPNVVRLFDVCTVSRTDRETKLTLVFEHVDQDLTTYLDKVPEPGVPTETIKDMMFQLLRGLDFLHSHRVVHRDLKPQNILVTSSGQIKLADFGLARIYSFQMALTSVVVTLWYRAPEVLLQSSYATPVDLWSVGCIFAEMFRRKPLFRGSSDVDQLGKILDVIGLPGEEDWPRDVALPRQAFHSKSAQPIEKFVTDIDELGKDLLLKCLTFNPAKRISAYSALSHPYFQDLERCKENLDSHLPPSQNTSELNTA
CDK6/CycD1, sequence (P24385 whole entry partner): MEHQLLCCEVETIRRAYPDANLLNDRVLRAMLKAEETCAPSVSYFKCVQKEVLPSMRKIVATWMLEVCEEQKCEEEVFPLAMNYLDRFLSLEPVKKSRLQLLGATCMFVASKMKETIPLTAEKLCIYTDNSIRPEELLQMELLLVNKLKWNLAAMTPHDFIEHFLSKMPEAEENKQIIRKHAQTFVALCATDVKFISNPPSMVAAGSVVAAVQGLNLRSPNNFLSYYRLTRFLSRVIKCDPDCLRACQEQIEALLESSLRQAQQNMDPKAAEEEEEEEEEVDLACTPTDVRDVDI
PIM1, sequence (P11309 whole entry): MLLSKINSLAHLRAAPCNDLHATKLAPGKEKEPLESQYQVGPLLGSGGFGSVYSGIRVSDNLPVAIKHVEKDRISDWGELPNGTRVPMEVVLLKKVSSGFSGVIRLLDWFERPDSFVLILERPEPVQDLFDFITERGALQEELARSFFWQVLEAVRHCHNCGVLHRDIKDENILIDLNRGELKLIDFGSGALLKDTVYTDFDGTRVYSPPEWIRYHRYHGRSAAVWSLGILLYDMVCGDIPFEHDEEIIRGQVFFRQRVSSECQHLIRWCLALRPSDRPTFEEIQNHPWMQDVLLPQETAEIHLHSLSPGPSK

## C=CC(=O)Nc1ccccc1Nc1ncc2c(n1)N(CCCN1CCN(C(=O)C=C)CC1)C(=O)N(c1cc(OC)cc(OC)c1)C2 [CXF-009]
Parental Ba/F3 cells
  IC50: > 5 µM
PIM1
  inhibition at 1 µM: 24.2%
p38δ
  inhibition at 1 µM: 13.9%
BMX
  inhibition at 1 µM: 10.5%
PAK2
  inhibition at 1 µM: 3.22%
Pkca
  inhibition at 1 µM: 1.73%
p70S6K
  inhibition at 1 µM: 1.69%
CDK2/CycE1
  inhibition at 1 µM: 1.59%
SGK3
  inhibition at 1 µM: 1.58%
Erk2
  inhibition at 1 µM: 0.94%
FLT4 (VEGFR3)
  inhibition at 1 µM: 0.74%
JAK2
  inhibition at 1 µM: 0.56%
FGFR2 [1]
  inhibition at 1 µM: 0.27%
PKD2
  inhibition at 1 µM: 0.08%
CDK1/CycA2
  inhibition at 1 µM: -1.02%
EPHB1
  inhibition at 1 µM: -1.49%
EPHB4
  inhibition at 1 µM: -1.86%
FYNb
  inhibition at 1 µM: -2.49%
CDK2/CycA2
  inhibition at 1 µM: -2.58%
JNK1
  inhibition at 1 µM: -4.4%
HIPK2
  inhibition at 1 µM: -5.04%
BTK
  inhibition at 1 µM: -5.76%
YES
  inhibition at 1 µM: -7.61%
MST2
  inhibition at 1 µM: -8.12%
YSK1
  inhibition at 1 µM: -8.51%
CDK6/CycD1
  inhibition at 1 µM: -9.58%
DYRK3
  inhibition at 1 µM: -12%
FGFR2 [2]
  IC50: 2.41 µM
